# Results reported in patent US6867320B2, “Substituted phenylalkanoic acid derivatives and use thereof” (Asahi Kasei Pharma Corporation, priority 2002, dated 2005).
# System: PGE2 production from IL-1β-stimulated MG-63 cells
# Assay: Suppressing action on PGE2 production from IL-1β-stimulated MG-63 cells
# Assay type: cell-based
# Conditions: Homo sapiens, IL-1β 1 ng/ml, 18 hours, read-out: PGE2 production suppression ratio
# Text: 1. Suppressing Action on PGE2 Production from IL-1β-Stimulated MG-63 Cells (1) Method for Measurement
# An action of suppressing PGE2 production caused by interleukin (IL) 1β as an inflammatory stimulant was studied by the following method. Cells of MG-63, which is a human osteosarcoma cell line (purchased from Dainippon Pharmaceutical), were suspended in EMEM medium (GIBCO) containing 10% fetal bovine serum (BioFluid), and then inoculated to each well of 96-well culture plate at a density of 2×10^4 cells/well and cultured overnight. The medium was changed to EMEM medium containing 0.5% fetal bovine serum, and then a test compound was added with each well. Human interleukin-1β (ENDOGEN) was further added as an inflammatory stimulant at a final concentration of 1 ng/ml. The cells were further cultured for 18 hours. The culture supernatant was collected, and the PGE2 concentration in the culture supernatant was measured by using EIA kit (CAYMAN). By using a well which was not added with the stimulant as a negative control and a well which was added only with the stimulant as a positive control, suppression ratios on PGE2 production were calculated from produced amounts of PGE2 in the well added with the test compound using the following equation. PGE2 production suppression ratio=[1−(C−B)/(A−B)]×100 • A: PGE2 production amount of positive control • B: PGE2 production amount of negative control • C: PGE2 production amount in well added with test compound
row,SMILES,inhibition at 0.4 µM [%]
1,"Cc1cc(CCC(=O)O)cc(-c2ccc3[nH]ccc3c2)c1OC1CCCC1 [Compound 571, 3-[4-cyclopentyloxy-3-(1H-indol-5-yl)-5-methylphenyl]propionic acid]",≥ 50
2,"O=C(O)CCc1ccc(OCC2CCCCC2)c(-c2ccc3cc(OCCO)ccc3c2)c1 [Compound 071, 3-{4-cyclohexylmethyloxy-3-[6-(2-hydroxyethyloxy)naphthalen-2-yl]phenyl}propionic acid]",≥ 50
3,"O=C(O)CCc1ccc(OCC2CCCCC2)c(-c2ccc3[nH]c(=O)ccc3c2)c1 [Compound 321, 3-[4-cyclohexylmethyloxy-3-(2-oxo-1,2-dihydroquinolin-6-yl)-phenyl]propionic acid]",≥ 50
4,"NS(=O)(=O)Nc1ccc2cc(-c3cc(CCC(=O)O)ccc3OCC3CCCC3)ccc2c1 [Compound 020, 3-[4-cyclopentylmethyloxy-3-(6-sulfamoylaminonaphthalen-2-yl)phenyl]propionic acid]",≥ 50
5,"Cc1cc(C)cc(COc2ccc(CCC(=O)O)cc2-c2ccc3[nH]ccc3c2)c1 [Compound 175, 3-[4-(3,5-dimethylphenylmethyloxy)-3-(1H-indol-5-yl)phenyl]propionic acid]",≥ 50
6,"CS(=O)(=O)c1ccc2cc(-c3cc(CCC(=O)O)ccc3OCC3CCCC3)ccc2c1 [Compound 022, 3-[4-cyclopentylmethyloxy-3-(6-methanesulfonylnaphthalen-2-yl)phenyl]propionic acid]",≥ 50
7,"Cn1ccc2cc(-c3cc(CCC(=O)O)cc(N)c3OCC3CCCC3)ccc21 [Compound 269, 3-[3-amino-4-cyclopentylmethyloxy-5-(1-methyl-1H-indol-5-yl)phenyl]propionic acid]",≥ 50
8,"Nc1cc(CCC(=O)O)cc(-c2ccc3ccccc3c2)c1OC1CCCC1 [Compound 333, 3-[3-amino-4-cyclopentyloxy-5-(naphthalen-2-yl)phenyl]propionic acid]",≥ 50
9,"O=C(O)CCc1ccc(OCC2CCCCC2)c(-c2ccc3cc[nH]c3c2)c1 [Compound 128, 3-[4-cyclohexylmethyloxy-3-(1H-indol-6-yl)phenyl]propionic acid]",≥ 50
10,"O=C(O)CCc1ccc(OCc2ccoc2)c(-c2ccc3[nH]ccc3c2)c1 [Compound 196, 3-{4-[(furan-3-yl)methyloxy]-3-(1H-indol-5-yl)phenyl}propionic acid]",≥ 50
11,"O=C(O)CCc1ccc(OCCC2CCCCC2)c(-c2ccc3ccccc3c2)c1 [Compound 049, 3-[4-(2-cyclohexylethyloxy)-3-(naphthalen-2-yl)phenyl]propionic acid]",≥ 50
12,"O=C(O)CCc1ccc(OCC2CCCC2)c(-c2ccc3occc3c2)c1 [Compound 277, 3-[3-(benzo[b]furan-5-yl)-4-cyclopentylmethyloxyphenyl]propionic acid]",≥ 50
13,"O=C(O)Cc1ccc(OCC2CCCCC2)c(-c2ccc3ccccc3c2)c1 [Compound 096, 4-cyclohexylmethyloxy-3-(naphthalen-2-yl)phenylacetic acid]",≥ 50
14,"COC(=O)CCc1cc(-c2ccc3ccccc3c2)c(OC2CCCC2)c([N+](=O)[O-])c1 [Compound 331, methyl 3-[4-cyclopentyloxy-3-(naphthalen-2-yl)-5-nitrophenyl]propionate]",≥ 50
15,"O=C(O)CCc1ccc(OCc2cccs2)c(-c2ccc3[nH]ccc3c2)c1 [Compound 198, 3-{3-(1H-indol-5-yl)-4-[(thiophen-2-yl)methyloxy]phenyl}propionic acid]",≥ 50
16,"CC(=O)c1cn(C)c2ccc(-c3cc(CCC(=O)O)ccc3OCC3CCCC3)cc12 [Compound 259, 3-[3-(3-acetyl-1-methyl-1H-indol-5-yl)-4-cyclopentylmethyloxyphenyl]propionic acid]",≥ 50
17,"Cn1c(=N)sc2cc(-c3cc(CCC(=O)O)ccc3OCC3CCCC3)ccc21 [Compound 303, 3-[4-cyclopentylmethyloxy-3-(2-imino-3-methyl-2,3-dihydrobenzothiazol-6-yl)phenyl]propionic acid]",≥ 50
18,"O=C(O)CCc1ccc(OCc2ccccc2C(F)(F)F)c(-c2ccc3[nH]ccc3c2)c1 [Compound 170, 3-{3-(1H-indol-5-yl)-4-[2-(trifluoromethyl)phenylmethyloxy]-phenyl}propionic acid]",≥ 50
19,"COc1ccc2cc(-c3cc(CCC(=O)O)ccc3OCC3CCCCC3)ccc2c1 [Compound 068, 3-[4-cyclohexylmethyloxy-3-(6-methoxynaphthalen-2-yl)phenyl]propionic acid]",≥ 50
20,"O=C(O)CCc1ccc(OCc2ccc(C(F)(F)F)cc2)c(-c2ccc3[nH]ccc3c2)c1 [Compound 172, 3-{3-(1H-indol-5-yl)-4-[4-(trifluoromethyl)phenylmethyloxy]-phenyl}propionic acid]",≥ 50

row,SMILES,inhibition at 0.4 µM [%]
1,"COC(=O)CCc1cc(N)c(OCC2CCCC2)c(-c2ccc3ccccc3c2)c1 [Compound 094, methyl 3-[3-amino-4-cyclopentylmethyloxy-5-(naphthalen-2-yl)phenyl]propionate]",≥ 50
2,"NS(=O)(=O)c1ccc2cc(-c3cc(CCC(=O)O)ccc3OCC3CCCC3)ccc2c1 [Compound 024, 3-[4-cyclopentylmethyloxy-3-(6-sulfamoylnaphthalen-2-yl)phenyl]propionic acid]",≥ 50
3,"Cn1cc(C=O)c2cc(-c3cc(CCC(=O)O)ccc3OCC3CCCC3)ccc21 [Compound 255, 3-[4-cyclopentylmethyloxy-3-(3-formyl-1-methyl-1H-indol-5-yl)phenyl]propionic acid]",≥ 50
4,"O=C(O)CCc1ccc(OCC2CCCCC2)c(-c2ccc3ncccc3c2)c1 [Compound 319, 3-[4-cyclohexylmethyloxy-3-(quinolin-6-yl)phenyl]propionic acid]",≥ 50
5,"O=C(O)CCc1ccc(OCc2cc(Cl)cc(Cl)c2)c(-c2ccc3[nH]ccc3c2)c1 [Compound 188, 3-[4-(3,5-dichlorophenylmethyloxy)-3-(1H-indol-5-yl)phenyl]propionic acid]",≥ 50
6,"Cc1cc2cc(-c3cc(CCC(=O)O)ccc3OCC3CCCC3)ccc2[nH]1 [Compound 584, 3-[4-cyclopentylmethyloxy-3-(2-methyl-1H-indol-5-yl)phenyl]propionic acid]",≥ 50
7,"O=C(O)CCc1ccc(OCc2cccnc2)c(-c2ccc3ccccc3c2)c1 [Compound 060, 3-{3-(naphthalen-2-yl)-4-[(pyridin-3-yl)methyloxy]phenyl}propionic acid]",≥ 50
8,"CC(C)(C)c1ccc(COc2ccc(CCC(=O)O)cc2-c2ccc3[nH]ccc3c2)cc1 [Compound 327, 3-[4-(4-t-butylphenylmethyloxy)-3-(1H-indol-5-yl)phenyl]propionic acid]",≥ 50
9,"CCCCOc1ccc(CCC(=O)O)cc1-c1ccc2[nH]ccc2c1 [Compound 130, 3-[4-butyloxy-3-(1H-indol-5-yl)phenyl]propionic acid]",≥ 50
10,"O=C(O)CCc1cc(O)c(OCC2CCCC2)c(-c2ccc3ccccc3c2)c1 [Compound 568, 3-[4-cyclopentylmethyloxy-3-hydroxy-5-(naphthalen-2-yl)phenyl]propionic acid]",≥ 50
11,"Cn1ccc2c(-c3cc(CCC(=O)O)ccc3OCC3CCCC3)cccc21 [Compound 122, 3-[4-cyclopentylmethyloxy-3-(1-methyl-1H-indol-4-yl)phenyl]propionic acid]",≥ 50
12,"O=C(O)CCc1cc(Cl)c(OCC2CCCC2)c(-c2ccc3ccccc3c2)c1 [Compound 092, 3-[3-chloro-4-cyclopentylmethyloxy-5-(naphthalen-2-yl)phenyl]propionic acid]",≥ 50
13,"Cc1nn(C)c2ccc(-c3cc(CCC(=O)O)ccc3OC3CCCC3)cc12 [Compound 576, 3-[4-cyclopentyloxy-3-(1,3-dimethyl-1H-indazol-5-yl)phenyl]propionic acid]",≥ 50
14,"CCCOc1ccc(CCC(=O)O)cc1-c1ccc2[nH]ccc2c1 [Compound 588, 3-[4-n-propyloxy-3-(1H-indol-5-yl)phenyl]propionic acid]",≥ 50
15,"O=C(O)CCc1ccc(OCC2CCCC2)c(-c2cnc3ccccc3c2)c1 [Compound 315, 3-[4-cyclopentylmethyloxy-3-(quinolin-3-yl)phenyl]propionic acid]",≥ 50
16,"O=C(O)CCc1ccc(OC2CCCCC2)c(-c2ccc3ncsc3c2)c1 [Compound 330, 3-[3-(benzothiazol-6-yl)-4-cyclohexyloxyphenyl]propionic acid]",≥ 50
17,"COc1cc(CCC(=O)O)cc(-c2ccc3[nH]ccc3c2)c1OC1CCCC1 [Compound 578, 3-[4-cyclopentyloxy-3-(1H-indol-5-yl)-5-methoxyphenyl]propionic acid]",≥ 50
18,"CNc1nc2ccc(-c3cc(CCC(=O)O)ccc3OCC3CCCC3)cc2s1 [Compound 297, 3-[4-cyclopentylmethyloxy-3-(2-methylaminobenzothiazol-6-yl)phenyl]propionic acid]",≥ 50
19,"O=C(O)CCc1ccc(OCC2CCCCC2)c(-c2ccc3cc(C(=O)O)ccc3c2)c1 [Compound 029, 3-[3-(6-carboxynaphthalen-2-yl)-4-cyclohexylmethyloxyphenyl]propionic acid]",≥ 50
